Source: the NIST ThermoML archive (doi:10.1021/je800999s)
Numbers after ± are expanded uncertainties.

Test: molar heat capacity at constant pressure
Conditions: 101 kPa, Liquid, Large sample (1 g) DSC

molar heat capacity at constant pressure (303.15 K) [J/K/mol] | molar heat capacity at constant pressure (308.15 K) [J/K/mol] | molar heat capacity at constant pressure (313.15 K) [J/K/mol] | molar heat capacity at constant pressure (318.15 K) [J/K/mol] | molar heat capacity at constant pressure (323.15 K) [J/K/mol] | molar heat capacity at constant pressure (328.15 K) [J/K/mol] | molar heat capacity at constant pressure (333.15 K) [J/K/mol] | molar heat capacity at constant pressure (338.15 K) [J/K/mol] | molar heat capacity at constant pressure (343.15 K) [J/K/mol] | molar heat capacity at constant pressure (348.15 K) [J/K/mol] | molar heat capacity at constant pressure (353.15 K) [J/K/mol] | Compound
359 ± 15 | 364 ± 15 | 366 ± 16 | 368 ± 16 | 370 ± 16 | 371 ± 16 | 373 ± 16 | 375 ± 16 | 379 ± 16 | 381 ± 16 | 382 ± 16 | COCCOCCOCCOC [2,5,8,11-tetraoxadodecane]
185 ± 8 | 186 ± 8 | 188 ± 8 | 189 ± 8 | 191 ± 8 | 193 ± 8 | 195 ± 8 | 197 ± 8 | 200 ± 9 | 201 ± 9 | 202 ± 9 | O=CN1CCOCC1 [N-formylmorpholine]
166 ± 7 | 167 ± 7 | 168 ± 7 | 169 ± 7 | 170 ± 7 | 172 ± 7 | 174 ± 7 | 175 ± 7 | 176 ± 7 | 177 ± 8 | 178 ± 8 | CN1CCCC1=O [N-methylpyrrolidone]
182 ± 8 | 184 ± 8 | 185 ± 8 | 186 ± 8 | 188 ± 8 | 189 ± 8 | 191 ± 8 | 193 ± 8 | 194 ± 8 | 197 ± 8 | 199 ± 8 | O=S1(=O)CCCC1 [sulfolane]
